Measurements: the NIST ThermoML archive (doi:10.1016/j.jct.2018.04.015)

Experiment: mn = molality of the nth substance listed, in mol/kg
Settings: 100 kPa, Liquid; for viscosity: Capillary tube (Ostwald / Ubbelohde) method; for mass density: Vibrating tube method

C[N+](C)(C)CCO.[Cl-] [choline chloride] + O
Settings | mass density, 293.15 K [kg/m3] | mass density, 298.15 K [kg/m3] | mass density, 303.15 K [kg/m3] | mass density, 308.15 K [kg/m3] | mass density, 313.15 K [kg/m3] | viscosity, 293.15 K [mPa·s] | viscosity, 298.15 K [mPa·s] | viscosity, 303.15 K [mPa·s] | viscosity, 308.15 K [mPa·s] | viscosity, 313.15 K [mPa·s]
m1 = 0.08502 | 999.63 | 998.44 | 997.02 | 995.39 | 993.55 | – | – | – | – | –
m1 = 0.09081 | – | – | – | – | – | 1.034 | 0.916 | 0.819 | 0.737 | 0.668
m1 = 0.1494 | – | – | – | – | – | 1.049 | 0.929 | 0.831 | 0.748 | 0.678
m1 = 0.15 | 1000.68 | 999.47 | 998.03 | 996.38 | 994.52 | – | – | – | – | –
m1 = 0.2002 | 1001.48 | 1000.25 | 998.79 | 997.13 | 995.25 | – | – | – | – | –
m1 = 0.2056 | – | – | – | – | – | 1.062 | 0.941 | 0.841 | 0.757 | 0.686
m1 = 0.2501 | 1002.25 | 1001 | 999.53 | 997.85 | 995.96 | – | – | – | – | –
m1 = 0.2998 | – | – | – | – | – | 1.082 | 0.959 | 0.858 | 0.772 | 0.7
m1 = 0.3003 | 1003.03 | 1001.75 | 1000.27 | 998.57 | 996.66 | – | – | – | – | –
m1 = 0.3503 | 1003.78 | 1002.49 | 1000.99 | 999.27 | 997.34 | – | – | – | – | –
m1 = 0.3511 | – | – | – | – | – | 1.093 | 0.968 | 0.867 | 0.78 | 0.708
m1 = 0.3997 | 1004.52 | 1003.22 | 1001.7 | 999.95 | 998 | – | – | – | – | –
m1 = 0.4226 | – | – | – | – | – | 1.107 | 0.981 | 0.878 | 0.791 | 0.718
m1 = 0.4502 | 1005.27 | 1003.94 | 1002.41 | 1000.64 | 998.67 | – | – | – | – | –
m1 = 0.489 | – | – | – | – | – | 1.119 | 0.993 | 0.889 | 0.801 | 0.728
m1 = 0.499 | 1005.99 | 1004.64 | 1003.08 | 1001.3 | 999.3 | – | – | – | – | –
